“Also recorded” adds a separate entry of the source. Read-outs that look alike come from different tables or passages of the source.
What was measured:
DENV-2 (Dengue) = test: DENV-2 antiviral immunofluorescence assay in Huh7 cells; assay type: cell-based
Method: (§1) Experimental Procedure. The antiviral activity of 8 dilutions of each compound was explored by adding the drug to the assay cells 2 h after infection with the different viruses. Virus and compounds were left on the cells for the entire duration of the experiment (28 h for Zika virus and 24 h for all other viruses). The cytotoxicity of the same range of concentrations of compounds was determined by LDH release assay in the same cell lines.
(§2) Cell plating. Cells were detached and counted following SOP-RA 003 and SOP-RA 004. Count was recorded in the Cell Count Logbook, Volume 1. For each virus four plates were seeded, two for the antiviral assay and two for the cytotoxicity assay. Cells were seeded in 100 μl/well of complete media at the following densities: • Huh7: 8,000 cells/well (Dengue) • SH-SY5Y: 10,000 cells/wells (Zika) • HeLa Tzmbl: 8,000 cells/well (HIV)
(§3) Compounds dilutions. The 22.1 mM stocks were further diluted to 1 mM in DMSO by adding 211 μl of DMSO to 10 μl of compound. Three serial dilutions were prepared in different media for different viruses/cells. For each dilution, drugs were prepared at twice the final concentration in 50 μl volume, because they are diluted to the final concentration by an equal volume of virus or media.
(§4) Infection. Cells were infected in 50 μl of supplemented media/well at the following multiplicity of infection (MOI): • DENV-2, MOI 1 • ZIKV, MOI 5 • HIV, MOI 0.5
(§5) After removing culture media from cells, 50 μl of virus dilution were added to all wells except Column 11 (uninfected control), where the same volume of supplemented media was added. […]
(§6) Infectivity readout. […] The primary antibodies were detected with an Alexa-488 conjugate secondary antibody (Life Technologies, A11001), and nuclei were stained with Hoechst. Images were acquired on a CellInsight CX5 high content platform (Thermo Scientific) using a 4× objective, and percentage infection calculated using CellInsight CX5 software (infected cells/total cells×100).
(§7) Determination of % Inhibition—IF assay. Normalized percentages of inhibition were calculated using the following formula: […]

HIV-1 = HIV-1 antiviral immunofluorescence assay in HeLa Tzmbl cells; assay type: cell-based; settings: HeLa Tzmbl
Method: as §1, §2, §3, §4, §5, §6, §7

ZIKV (Zika virus) = test: ZIKV antiviral immunofluorescence assay in SH-SY5Y cells; assay type: cell-based
Method: as §1, §2, §3, §4, §5, §6, §7

authentic SARS-CoV-2 = test: microbe, parasite or virus in culture; assay type: cell-based; settings: for effect on authentic SARS-CoV-2 infection: Vero E6; for IC50: Severe acute respiratory syndrome coronavirus 2, Vero C1008, read-out: IC50 of SARS-CoV-2 infection
[1] = test system: cell surface heparan sulfate of Hep3B cells; test: Heparan sulfate presentation by anti-HS mAb 10E4 staining of Hep3B cells; assay type: cell-based, human; settings: for effect on halofuginone-induced reduction in heparan sulfate production (10E4 binding): co-incubated with halofuginone
[2] = test system: recombinant SARS-CoV-2 spike RBD protein binding to Hep3B cells; settings: for decrease of SARS-CoV-2 RBD binding compared to excipient control (DMSO): 18 h; for effect on halofuginone-induced reduction in spike protein binding: co-incubated with halofuginone
[3] = ProSA at 50 μM, halofuginone 500 nM

| SMILES | effect on authentic SARS-CoV-2 infection (authentic SARS-CoV-2) | effect on heparan sulfate presentation (10E4 binding) [1] | effect on spike (RBD) protein binding [2] | further results |
| --- | --- | --- | --- | --- |
| CC(C)(C)OC(=O)N1CCCC(O)[C@H]1CC(=O)Cn1cnc2cc(Br)c(Cl)cc2c1=O (some centres unmarked) | – | – | – | antiviral activity against DENV-2 (DENV-2 (Dengue); Huh7): did not display antiviral activity; antiviral activity against HIV-1 (HIV-1): did not display antiviral activity; antiviral activity against ZIKV (ZIKV (Zika virus)): did not display antiviral activity |
| O=C(CC1NCCCC1O)Cn1cnc2cc(Br)c(Cl)cc2c1=O (single isomer, unassigned) [2S,3R-(−)enantiomer] | No inhibition was observed | – | – | – |
| Nc1ncn([C@@H]2O[C@H](CO)[C@@H](O)[C@H]2O)c(=O)n1 [5-Azacytidine] | – | reduced heparan sulfate presentation | – | – |
| Nc1ncn([C@H]2C[C@H](O)[C@@H](CO)O2)c(=O)n1 [5-Azadeoxycitidine] | – | reduced heparan sulfate presentation | – | – |
| Nc1ncnc2c1c(I)cn2[C@@H]1O[C@H](CO)[C@@H](O)[C@H]1O [5-Iodotubercidin] | – | reduced heparan sulfate presentation | – | – |
| CNC(=O)Nc1ccc2c(c1)CC[C@@]21OC(=O)N(CC(=O)N(Cc2ccc(F)cc2)[C@@H](C)C(F)(F)F)C1=O [A-485] | – | reduced heparan sulfate presentation | – | – |
| O=C(/C=C/c1cccc(S(=O)(=O)Nc2ccccc2)c1)NO [Belinostat] | – | increased 10E4 staining | reduced spike protein by more than two-fold | decrease of SARS-CoV-2 RBD binding compared to excipient control (DMSO) ([2]; 5 μM): ~50% |
| c1nn(C2CCOCC2)cc1Nc1ncc2nnn(-c3ccc4cn[nH]c4c3)c2n1 [GCN2-IN-1] | – | reduced in heparan sulfate production; also recorded: reduced 10E4 and spike RBD binding almost to the same extent as halofuginone | – | effect on halofuginone-induced reduction in spike protein binding [2]: reversed the halofuginone induced reduction in 10E4 or spike protein binding; effect on halofuginone-induced reduction in heparan sulfate production (10E4 binding) [1]: reversed the halofuginone induced reduction in 10E4 or spike protein binding |
| Cn1cc(-c2ccc3c(c2)CCN3C(=O)Cc2cccc(C(F)(F)F)c2)c2c(N)ncnc21 [GSK2606414] | – | Neither PERKi nor ISRIB affected 10E4 or spike RBD binding | Neither PERKi nor ISRIB affected 10E4 or spike RBD binding | effect on halofuginone-induced reduction in spike protein binding [2]: reversed the halofuginone induced reduction in 10E4 or spike protein binding; effect on halofuginone-induced reduction in spike protein binding ([2]; listed as PERKi): unable to attenuate the halofuginone-induced reduction in heparan sulfate production and Spike protein binding; effect on halofuginone-induced reduction in heparan sulfate production (10E4 binding) [1]: reversed the halofuginone induced reduction in 10E4 or spike protein binding; effect on halofuginone-induced reduction in heparan sulfate production (10E4 binding) ([1]; listed as PERKi): unable to attenuate the halofuginone-induced reduction in heparan sulfate production |
| O=C(COc1ccc(Cl)cc1)NC1CCC(NC(=O)COc2ccc(Cl)cc2)CC1 (centres unmarked) [ISRIB] | – | Neither PERKi nor ISRIB affected 10E4 or spike RBD binding | Neither PERKi nor ISRIB affected 10E4 or spike RBD binding | effect on halofuginone-induced reduction in heparan sulfate production (10E4 binding) [1]: unable to attenuate the halofuginone-induced reduction in heparan sulfate production; also recorded: nor ISRIB reversed the halofuginone induced reduction in 10E4 or spike protein binding |
| CC(C)(C)OC(=O)N1CCC[C@H](O)[C@H]1CC(=O)Cn1cnc2cc(Br)c(Cl)cc2c1=O [MAZ1310] | did not have any activity | had no effect | had no effect | – |
| Nc1ncnc2c1ncn2[C@@H]1O[C@H](COS(=O)(=O)NC(=O)[C@@H]2CCCN2)[C@@H](O)[C@H]1O [ProSA, prolyl-sulfamoyl adenosine] | inhibited authentic SARS-CoV-2 infection of Vero E6 cells; also recorded: inhibit infection by authentic SARS-CoV-2 when provided at higher doses | – | – | effect on Spike protein binding ([2]; 1 μM): unable to inhibit heparan sulfate inhibition and Spike protein binding; effect on spike RBD binding [2, 3]: prevented HS presentation and spike RBD binding to similar levels as treatment with halofuginone; effect on heparan sulfate presentation ([1]; 1 μM): unable to inhibit heparan sulfate inhibition and Spike protein binding; effect on HS presentation (mAb 10E4 stain) [1, 3]: prevented HS presentation and spike RBD binding to similar levels as treatment with halofuginone |
| CCC(CC)COC(=O)[C@H](C)N[P@](=O)(OC[C@H]1O[C@@](C#N)(c2ccc3c(N)ncnn23)[C@H](O)[C@@H]1O)Oc1ccccc1 [Remdesivir] | – | – | – | IC50 (authentic SARS-CoV-2): 8 µM |
| C/C=C1\NC(=O)[C@H]2CSSCC/C=C/[C@H](CC(=O)N[C@H](C(C)C)C(=O)N2)OC(=O)[C@H](C(C)C)NC1=O [Romidepsin] | – | – | – | decrease of SARS-CoV-2 RBD binding compared to excipient control (DMSO) ([2]; 1 μM): ~50% |
| Nc1ncnc2c1ncn2C1OC(COS(=O)(=O)NC(=O)[C@@H](N)CO)[C@@H](O)[C@H]1O (some centres unmarked) [SerSA, seryl-sulfamoyl adenosine] | Neither of these AARS inhibitors were able to significantly attenuate viral replication | – | Neither of these AARS inhibitors were able to significantly attenuate | – |
| COc1cc2c(NC3CCN(C(C)C)CC3)nc(C3CCCCC3)nc2cc1OCCCN1CCCC1 [UNC0638] | – | increased the total amount of heparan sulfate | – | – |
| C[C@@H]1C[C@H](C)C[C@H](C)[C@@H](O)CC(=O)O[C@H]([C@@H]2CCC[C@H]2C(=O)O)C/C=C/C=C(/C#N)[C@H](O)[C@@H](C)C1 [borrelidin] | Neither of these AARS inhibitors were able to significantly attenuate viral replication | Inhibits HS production | Neither of these AARS inhibitors were able to significantly attenuate | effect on spike (RBD) protein binding ([2]; listed as Borrelidin): not SARS-CoV-2 Spike RBD protein binding |
| CCN(CC)CCCC(C)Nc1ccnc2cc(Cl)ccc12 (centres unmarked) [chloroquine] | – | – | – | IC50 (authentic SARS-CoV-2): 1.9 µM |
| O=c1c2cc(Cl)c(Br)cc2ncn1C[C@H](O)C[C@H]1NCCC[C@@H]1O [halofuginol] | inhibited authentic SARS-CoV-2 infection of Vero E6 cells; also recorded: inhibit infection by authentic SARS-CoV-2 when provided at higher doses | significantly decreased 10E4 and spike RBD binding | significantly decreased 10E4 and spike RBD binding | inhibition of DENV-2 (DENV-2 (Dengue); Huh7, highest concentration tested (1000 nM)): ~60%; EC50 (HIV-1; MOI 0.5, drug added 2 h after infection, 24 h, read-out: EC50 HIV-1): 0.344 µM; antiviral activity against ZIKV (ZIKV (Zika virus)): antiviral activity only against HIV-1 |

From patent US20230321101A1, “METHODS AND USES OF HALOFUGINONE” (The Regents of the University of California, priority 2020, published 2023)
